Values after ≈ are worked out from the molar mass of the structure shown. Non-standard residues stand in square brackets, D forms with d. Residues, ends and D or L forms follow the SMILES beside them. His(τ-Bzl) = N[C@@H](Cc1cn(Cc2ccccc2)cn1)C(=O)O; Phe(4-Me) = Cc1ccc(C[C@H](N)C(=O)O)cc1; Cha = N[C@@H](CC1CCCCC1)C(=O)O; Phg = N[C@H](C(=O)O)c1ccccc1; Nle = CCCC[C@H](N)C(=O)O; Orn = NCCC[C@H](N)C(=O)O; Dab = NCC[C@H](N)C(=O)O
Experiments:
Escherichia coli = assay: Anti-bacterial activity against Escherichia coli ATCC 35218 by CLSI method; type: functional
Aspergillus fumigatus = assay: Antifungal activity against Aspergillus fumigatus ATCC 90906 after 68 to 72 hrs by Alamar blue assay; type: functional
Pseudomonas aeruginosa = assay: Anti-bacterial activity against Pseudomonas aeruginosa ATCC 27853 by CLSI method; type: functional
Candida albicans = assay: Antifungal activity against Candida albicans ATCC 90028 after 18 to 24 hrs by Alamar blue assay; type: functional
Nakaseomyces glabratus = assay: Antifungal activity against Candida glabrata ATCC 90030 after 18 to 24 hrs by Alamar blue assay; type: functional
Vero = assay: Cytotoxicity against African green monkey Vero cells up to 10 ug/ml after 48 hrs by neutral red dye based assay; type: cell-based; settings: chlorocebus sabaeus
[1] = tested on: Mycobacterium intracellulare; assay: Anti-bacterial activity against Mycobacterium intracellulare ATCC 23068 after 68 to 72 hrs by Alamar blue assay; type: functional, cell-based
Pichia kudriavzevii [2] = assay: Antifungal activity against Candida krusei ATCC 6258 after 18 to 24 hrs by Alamar blue assay; type: functional
Cryptococcus neoformans [3] = assay: Antifungal activity against Cryptococcus neoformans ATCC 90113 after 68 to 72 hrs by Alamar blue assay; type: functional
Cryptococcus neoformans [4] = assay: Fungicidal activity against Cryptococcus neoformans ATCC 90113 after 68 to 72 hrs by Alamar blue assay; type: functional
Staphylococcus aureus [5] = assay: Anti-bacterial activity against Staphylococcus aureus ATCC 29213 by CLSI method; type: functional
Staphylococcus aureus [6] = assay: Anti-bacterial activity against methicillin-resistant Staphylococcus aureus ATCC 33591 by CLSI method; type: functional
Pichia kudriavzevii [7] = assay: Fungicidal activity against Candida krusei ATCC 6258 after 18 to 24 hrs by Alamar blue assay; type: functional
[8] = Pichia kudriavzevii, ATCC 6258, read-out: IC50
[9] = Escherichia coli, ATCC 35218, read-out: IC50
[10] = Staphylococcus aureus, ATCC 33591, read-out: IC50
[11] = Staphylococcus aureus, ATCC 29213, read-out: IC50

| SMILES | IC50 (Aspergillus fumigatus) | IC50 (Pseudomonas aeruginosa) | IC50 (Candida albicans) | IC50 (Nakaseomyces glabratus) | Activity (Vero) | IC50 [1] | IC50 (Pichia kudriavzevii [2]) | MIC (Cryptococcus neoformans [3]) | MFC (Cryptococcus neoformans [4]) | also measured |
| --- | --- | --- | --- | --- | --- | --- | --- | --- | --- | --- |
| Cc1ccc(C[C@H](NC(=O)[C@@H](Cc2ccccc2)NC(=O)[C@@H](Cc2c[nH]c3ccccc23)NC(=O)[C@@H](N)CCN)C(=O)N[C@H](Cc2ccccc2)C(=O)N[C@@H](Cc2cn(Cc3ccccc3)cn2)C(N)=O)cc1 (H-[Dab][dW][dF][Phe(4-Me)][dF][His(τ-Bzl)]-NH2) | Not Active | Not Active | Not Active | Not Active | Non-Toxic | Not Active | – | – | – | IC50 (Escherichia coli): Not Active |
| CC[C@H](C)[C@H](NC(=O)[C@H](CC1CCCCC1)NC(=O)[C@H](Cc1ccccc1)NC(=O)[C@@H](N)CCCN)C(=O)N[C@H](Cc1ccccc1)C(=O)N[C@@H](Cc1cn(Cc2ccccc2)cn1)C(N)=O (H-[Orn]F[Cha]I[dF][His(τ-Bzl)]-NH2) | Not Active | Not Active | Not Active | Not Active | Non-Toxic | Not Active | Not Active | 2.5 µg/mL (≈ 2.72 µM) | – | – |
| CC[C@H](C)[C@H](NC(=O)[C@H](CC1CCCCC1)NC(=O)[C@H](CC(C)C)NC(=O)[C@@H](N)CCCN)C(=O)N[C@H](Cc1ccccc1)C(=O)N[C@@H](Cc1cn(Cc2ccccc2)cn1)C(N)=O (H-[Orn]L[Cha]I[dF][His(τ-Bzl)]-NH2) | Not Active | Not Active | Not Active | Not Active | Non-Toxic | Not Active | Not Active | – | 2.5 µg/mL (≈ 2.82 µM) | – |
| CC[C@H](C)[C@H](NC(=O)[C@H](CC1CCCCC1)NC(=O)[C@@H]1CCCN1C(=O)[C@@H](N)CCCN)C(=O)N[C@H](Cc1ccccc1)C(=O)N[C@@H](Cc1cn(Cc2ccccc2)cn1)C(N)=O (H-[Orn]P[Cha]I[dF][His(τ-Bzl)]-NH2) | Not Active | Not Active | Not Active | Not Active | Non-Toxic | Not Active | Not Active | – | 2.5 µg/mL (≈ 2.88 µM) | – |
| CCCC[C@H](NC(=O)[C@@H](N)CCCN)C(=O)N[C@@H](CC1CCCCC1)C(=O)N[C@H](C(=O)N[C@H](Cc1ccccc1)C(=O)N[C@@H](Cc1cn(Cc2ccccc2)cn1)C(N)=O)[C@@H](C)CC (H-[Orn][Nle][Cha]I[dF][His(τ-Bzl)]-NH2) | Not Active | Not Active | Not Active | Not Active | Non-Toxic | Not Active | Not Active | – | 2.5 µg/mL (≈ 2.82 µM) | – |
| CC[C@H](C)[C@H](NC(=O)[C@H](CC1CCCCC1)NC(=O)[C@@H](NC(=O)[C@@H](N)CCCN)c1ccccc1)C(=O)N[C@H](Cc1ccccc1)C(=O)N[C@@H](Cc1cn(Cc2ccccc2)cn1)C(N)=O (H-[Orn][Phg][Cha]I[dF][His(τ-Bzl)]-NH2) | Not Active | Not Active | Not Active | Not Active | Non-Toxic | Not Active | Not Active | – | – | – |
| CC[C@H](C)[C@H](NC(=O)[C@H](CC1CCCCC1)NC(=O)[C@@H](Cc1ccccc1)NC(=O)[C@@H](N)CCCN)C(=O)N[C@H](Cc1ccccc1)C(=O)N[C@@H](Cc1cn(Cc2ccccc2)cn1)C(N)=O (H-[Orn][dF][Cha]I[dF][His(τ-Bzl)]-NH2) | Not Active | Not Active | Not Active | Not Active | Non-Toxic | – | Not Active | – | 1.25 µg/mL (≈ 1.36 µM) | – |
| CC[C@H](C)[C@H](NC(=O)[C@H](CC1CCCCC1)NC(=O)[C@@H](CC(C)C)NC(=O)[C@@H](N)CCCN)C(=O)N[C@H](Cc1ccccc1)C(=O)N[C@@H](Cc1cn(Cc2ccccc2)cn1)C(N)=O (H-[Orn][dL][Cha]I[dF][His(τ-Bzl)]-NH2) | Not Active | Not Active | Not Active | Not Active | Non-Toxic | – | Not Active | 1.25 µg/mL (≈ 1.41 µM) | – | MIC ([1]; Mycobacterium intracellulare, ATCC 23068): 20 µg/mL (≈ 22.6 µM) |
| CC[C@H](C)[C@H](NC(=O)[C@H](CC1CCCCC1)NC(=O)[C@H]1CCCN1C(=O)[C@@H](N)CCCN)C(=O)N[C@H](Cc1ccccc1)C(=O)N[C@@H](Cc1cn(Cc2ccccc2)cn1)C(N)=O (H-[Orn][dP][Cha]I[dF][His(τ-Bzl)]-NH2) | Not Active | Not Active | Not Active | Not Active | Non-Toxic | Not Active | Not Active | 2.5 µg/mL (≈ 2.88 µM) | 2.5 µg/mL (≈ 2.88 µM) | – |
| CC(C)[C@H](NC(=O)[C@H](CC1CCCCC1)NC(=O)[C@@H](Cc1c[nH]c2ccccc12)NC(=O)[C@@H](N)CCCN)C(=O)N[C@H](Cc1ccccc1)C(=O)N[C@@H](Cc1cn(Cc2ccccc2)cn1)C(N)=O (H-[Orn][dW][Cha]V[dF][His(τ-Bzl)]-NH2) | Not Active | Not Active | Not Active | Not Active | Non-Toxic | – | Not Active | 1.25 µg/mL (≈ 1.32 µM) | 1.25 µg/mL (≈ 1.32 µM) | IC50 (Escherichia coli): Not Active |
| CC[C@@H](C)[C@@H](NC(=O)[C@H](CC1CCCCC1)NC(=O)[C@@H](Cc1c[nH]c2ccccc12)NC(=O)[C@@H](N)CCCN)C(=O)N[C@H](Cc1ccccc1)C(=O)N[C@@H](Cc1cn(Cc2ccccc2)cn1)C(N)=O (H-[Orn][dW][Cha][dI][dF][His(τ-Bzl)]-NH2) | Not Active | Not Active | – | Not Active | Non-Toxic | – | – | – | – | – |
| CC(C)C[C@@H](NC(=O)[C@H](CC1CCCCC1)NC(=O)[C@@H](Cc1c[nH]c2ccccc12)NC(=O)[C@@H](N)CCCN)C(=O)N[C@H](Cc1ccccc1)C(=O)N[C@@H](Cc1cn(Cc2ccccc2)cn1)C(N)=O (H-[Orn][dW][Cha][dL][dF][His(τ-Bzl)]-NH2) | Not Active | Not Active | Not Active | Not Active | Non-Toxic | – | – | 2.5 µg/mL (≈ 2.61 µM) | – | IC50 (Escherichia coli): Not Active; IC50 (Pichia kudriavzevii [2]; [8]): 20 µg/mL (≈ 20.9 µM); MIC (Staphylococcus aureus [5]; Staphylococcus aureus, ATCC 29213): 20 µg/mL (≈ 20.9 µM) |
| Cc1ccc(C[C@H](NC(=O)[C@@H](Cc2ccccc2)NC(=O)[C@@H](Cc2c[nH]c3ccccc23)NC(=O)[C@@H](N)CCCN)C(=O)N[C@H](Cc2ccccc2)C(=O)N[C@@H](Cc2c[nH]cn2)C(N)=O)cc1 (H-[Orn][dW][dF][Phe(4-Me)][dF]H-NH2) | Not Active | Not Active | Not Active | Not Active | Non-Toxic | Not Active | Not Active | 1.25 µg/mL (≈ 1.37 µM) | 1.25 µg/mL (≈ 1.37 µM) | IC50 (Escherichia coli): Not Active; IC50 (Staphylococcus aureus [6]): Not Active; IC50 (Cryptococcus neoformans [3]): 0.8 µg/mL (≈ 0.879 µM); IC50 (Staphylococcus aureus [5]): Not Active |
| Cc1ccc(C[C@H](NC(=O)[C@@H](Cc2ccccc2)NC(=O)[C@@H](Cc2c[nH]c3ccccc23)NC(=O)[C@@H](N)CCCN)C(=O)N[C@H](Cc2ccccc2)C(=O)N[C@@H](CCN)C(N)=O)cc1 (H-[Orn][dW][dF][Phe(4-Me)][dF][Dab]-NH2) [listing 1 of 2 here] | Not Active | Not Active | Not Active | Not Active | Non-Toxic | Not Active | – | – | – | IC50 (Escherichia coli; [9]): 6 µg/mL (≈ 6.87 µM); IC50 (Pichia kudriavzevii [2]; [8]): 14.8 µg/mL (≈ 16.9 µM); IC50 (Staphylococcus aureus [6]; [10]): > 20 µg/mL; IC50 (Cryptococcus neoformans [3]): 0.8 µg/mL (≈ 0.916 µM); IC50 (Staphylococcus aureus [5]; [11]): 16.1 µg/mL (≈ 18.4 µM) |
| Cc1ccc(C[C@H](NC(=O)[C@@H](Cc2ccccc2)NC(=O)[C@@H](Cc2c[nH]c3ccccc23)NC(=O)[C@@H](N)CCCN)C(=O)N[C@H](Cc2ccccc2)C(=O)N[C@@H](CCN)C(N)=O)cc1 (H-[Orn][dW][dF][Phe(4-Me)][dF][Dab]-NH2) [listing 2 of 2 here] | – | – | – | – | – | – | – | 1.25 µg/mL (≈ 1.43 µM) | 1.25 µg/mL (≈ 1.43 µM) | MIC (Pichia kudriavzevii [2]; Pichia kudriavzevii, ATCC 6258): 20 µg/mL (≈ 22.9 µM); MFC (Pichia kudriavzevii [7]): 20 µg/mL (≈ 22.9 µM) |
| Cc1ccc(C[C@H](NC(=O)[C@@H](Cc2ccccc2)NC(=O)[C@@H](Cc2c[nH]c3ccccc23)NC(=O)[C@@H](N)CCCN)C(=O)N[C@H](Cc2ccccc2)C(=O)N[C@H](Cc2c[nH]cn2)C(N)=O)cc1 (H-[Orn][dW][dF][Phe(4-Me)][dF][dH]-NH2) | Not Active | Not Active | Not Active | Not Active | Non-Toxic | Not Active | – | 1.25 µg/mL (≈ 1.37 µM) | 1.25 µg/mL (≈ 1.37 µM) | IC50 (Escherichia coli; [9]): 12.7 µg/mL (≈ 14 µM); MIC (Pichia kudriavzevii [2]; Pichia kudriavzevii, ATCC 6258): 10 µg/mL (≈ 11 µM); IC50 (Pichia kudriavzevii [2]; [8]): 5.16 µg/mL (≈ 5.67 µM); IC50 (Staphylococcus aureus [6]; [10]): > 20 µg/mL; IC50 (Cryptococcus neoformans [3]): 0.8 µg/mL (≈ 0.879 µM); MFC (Pichia kudriavzevii [7]): 10 µg/mL (≈ 11 µM); IC50 (Staphylococcus aureus [5]; [11]): 18 µg/mL (≈ 19.8 µM) |
| O=C(O)c1cn(C2CC2)c2cc(N3CCNCC3)c(F)cc2c1=O [CIPROFLOXACIN] | – | – | – | – | – | – | – | – | – | IC50 ([1]; Mycobacterium intracellulare, ATCC 23068, read-out: IC50): 0.47 µg/mL (≈ 1.42 µM) |
